Assay results published in PMC9605374 (Marine Drugs, 2022).

How the values were obtained:
[1] = parameters: method as in PMID 27355960; settings: no hemolytic activity; cited from earlier work
[2] = tested on: splenocytes; parameters: method as in PMID 27355960; settings: cited from earlier work
[3] = tested on: noncancer cells; test: MTT assay, mean IC50 in noncancer cell panel; type: cell-based; settings: Homo sapiens, mean over PNT2, RWPE-1, HEK293, MRC-9, 48 h
Excerpt: (§1) To examine the anticancer potential and selectivity of NB, we used a panel of six human prostate cancer cell lines, harboring different levels of treatment resistance to representatively reflect the heterogeneity of the disease. […] Additionally, four human noncancer cells lines were utilized in order to determine the selectivity of NB towards prostate cancer cells, i.e., prostate noncancer PNT2 and RWPE-1 cells, human embryonic kidney HEK 293T cells, and human fibroblasts MRC-9. The different cell lines were treated with NB and the cell viability was examined using MTT assay (Figure 1). The mean IC50 of NB and docetaxel (used as a reference substance) in noncancerous cell lines was divided by the mean IC50 in the prostate cancer cell lines to determine the selectivity index (SI).
The MTT assay was used to monitor the effect of the drugs on cell viability in terms of metabolic activity, as previously reported. First, preincubation of the cells in 96-well plates (6 × 10^3 cells/well in 100 μL/well) was performed overnight in the correspondent culture medium. Next, the medium was exchanged for fresh medium containing the investigated compounds or a vehicle (100 μL/well). […] Finally, 50 μL/well of DMSO were added to solve the formed formazan crystals produced by the metabolic active cells and Infinite F200PRO reader (TECAN, Männedorf, Switzerland) was used to measure the cell viability. […]

[4] = tested on: serine-/threonine kinases (JNK1/2, p38) in 22Rv1 cells; test: Kinome profiling of serine/threonine kinases (PamGene), upstream kinase analysis; type: cell-based, human; settings: 22Rv1, 1 µM and 10 µM, 2 h
Excerpt: To further investigate the mechanism of anticancer action of NB, we examined the effects of the compound on serine-/threonine protein kinases. Protein kinases modify target molecules (proteins) via phosphorylation, thus, altering their activity. A subgroup of these kinases—serine-/threonine kinases (STK)—play a key role in various essential processes related to cell death and cell survival. Consequently, protein kinases, in general, are important target molecules for various anticancer drugs. Specifically, modification of STKs’ activity has been exploited as a mechanism of action. Several clinically approved drugs, such as sunitinib, palbociclib, cobimetinib, and axitinib, utilize this mechanism to execute their therapeutic action. Thus, we performed functional kinomics using the microarray-based PamGene technology. This method allows a systematic examination of the changes in STK activity (http://www.pamgene.de, accessed on 22 January 2022, Figure 5A–D). We used two different concentrations, specifically, 1 µM and 10 µM, in order to cover different biological effects, which may take place at the different drug doses (Figure 5A). […]
Figure 5 Kinome profiling of serine/threonine kinases (STKs). 22Rv1 cells were incubated with NB for 2 h; the proteins were extracted and STK were analyzed using functional kinome profiling. […]

[5] = tested on: MRC-9; test: MTT assay, cell viability; type: cell-based; settings: Homo sapiens, MRC9, MRC-9, 48 h of treatment, mean ± SD
Excerpt: as §1
(§2) The MTT assay was used to monitor the effect of the drugs on cell viability in terms of metabolic activity, as previously reported. First, preincubation of the cells in 96-well plates (6 × 10^3 cells/well in 100 μL/well) was performed overnight in the correspondent culture medium. Next, the medium was exchanged for fresh medium containing the investigated compounds or a vehicle (100 μL/well). Cells were then incubated for 48 h, unless otherwise stated. Then, 10 μL/well of 3-(4,5-dimethylthiazol-2-yl)-2,5-diphenyltetrazolium bromide reagent (MTT, 5 mg/mL) were added. After 2–4 h of additional incubation the media was removed, and the plates were dried. Finally, 50 μL/well of DMSO were added to solve the formed formazan crystals produced by the metabolic active cells and Infinite F200PRO reader (TECAN, Männedorf, Switzerland) was used to measure the cell viability. The results were proceeded with a GraphPad Prism software v.9.1.1 (GraphPad Software, San Diego, CA, USA). Cells treated with the solvent of the drugs alone were used as a control (100% alive cells). The effect of the drugs on cell viability is represented as IC50.

[6] = tested on: DU145; test: MTT assay, cell viability; type: cell-based; settings: Homo sapiens, DU-145, DU145, 48 h of treatment, mean ± SD
Excerpt: as §1, §2

[7] = tested on: HEK293; test: MTT assay, cell viability; type: cell-based; settings: Homo sapiens, HEK293, 48 h of treatment, mean ± SD
Excerpt: as §1, §2

[8] = tested on: VCaP; test: MTT assay, cell viability; type: cell-based; settings: Homo sapiens, 48 h of treatment, mean ± SD
Excerpt: as §1, §2

[9] = tested on: 22Rv1; test: MTT assay, cell viability; type: cell-based; settings: Homo sapiens, 22Rv1, 48 h of treatment, mean ± SD
Excerpt: as §1, §2

[10] = tested on: PNT2; test: MTT assay, cell viability; type: cell-based; settings: Homo sapiens, PNT2, 48 h of treatment, mean ± SD
Excerpt: as §1, §2

[11] = tested on: PC3; test: MTT assay, cell viability; type: cell-based; settings: Homo sapiens, PC-3, PC3, 48 h of treatment, mean ± SD
Excerpt: as §1, §2

[12] = tested on: RWPE-1; test: MTT assay, cell viability; type: cell-based; settings: Homo sapiens, RWPE-1, 48 h of treatment, mean ± SD
Excerpt: as §1, §2

[13] = tested on: LNCaP; test: MTT assay, cell viability; type: cell-based; settings: Homo sapiens, 48 h of treatment, mean ± SD
Excerpt: as §1, §2

COc1ccc(C2SSC34CC5(O)C(Cl)C=CC(O)C5ON3C(=O)C2N(C)C4=O)c(O)c1OC (stereo not shown) [NB, N-methylpretrichodermamide B]
IC50 [1]: ≥ 100 µM
ID50, cytotoxic activity in splenocytes [2]: 62.1 µM
IC50 [3]: 15.5 µM
upstream kinase analysis, JNK1/2 and p38 kinases [4]: very likely upregulated
IC50 [5]: 11.1 ± 4.3 µM
IC50 [6]: 13 ± 2.69 µM
IC50 [7]: 9.3 ± 1.57 µM
IC50 [8]: 0.143 ± 0.145 µM
IC50 [9]: 3.02 ± 2.5 µM
IC50 [10]: 25.1 ± 5.92 µM
IC50 [11]: 6.03 ± 1.18 µM
IC50 [12]: 16.4 ± 1.87 µM
IC50 [13]: 12.2 ± 2.97 µM
